Results: patent US8178506B2, “Oligomeric compounds and compositions for use in modulation of small non-coding RNAs” (Regulus Therapeutics Inc., priority 2003, dated 2012)

Key:
ERK5 protein = experiment: Immunoblot of ERK5 protein in differentiating adipocytes; assay type: cell-based, human; settings: differentiating adipocytes 7- and 10-days post-differentiation, 250 nM
Protocol: (§1) When miRNAs have effects on the expression of downstream genes or proteins encoded by these genes, it is advantageous to measure the protein levels of those gene products, and to do this, western blot (immunoblot) analysis is employed. Immunoblot analysis is carried out using standard methods. Briefly, preadipocytes and differentiating adipocytes were cultured as described previously, and differentiating adipocytes are sampled at several timepoints after stimulation of differentiation. Cells were treated with 250 nM oligomeric compounds and harvested 16-20 h after oligomeric compound treatment. Cells were washed, lysed in RIPA buffer with protease inhibitor cocktail (Roche Diagnostics Corporation, Indianapolis, Ind.), suspended in Laemmli buffer (20 ul/well), boiled for 5 minutes and loaded onto either an 8% SDS-PAGE or a 4-20% gradient SDS-PAGE gel. Gels are run for approximately 1.5 hours at 150 V, and transferred to PVDF membrane for western blotting. […] Bands are visualized and quantitated using a PHOSPHORIMAGER™ (Molecular Dynamics, Sunnyvale Calif.) or the ChemiDoc™ system (Bio-Rad Laboratories, Inc., Hercules, Calif.). Thus, the effects of treatment of many cell types (including, but not limited to, preadipocytes, differentiating adipocytes, HeLa, T-24 and A549 cells) with oligomeric compounds of the present invention on the levels of gene expression products can be assessed. […]

PPP2CB protein = experiment: Immunoblot of PPP2CB protein in differentiating adipocytes; assay type: cell-based, human; settings: differentiating adipocytes 7- and 10-days post-differentiation, 250 nM
Protocol: as §1

Which results are given for “TGAGCTACAGTGCTTCATCTCA [ISIS 327901] (chemistry not given here) [uniform 2′-MOE PS; targets mir-143]”?
ERK5 protein levels vs pre-adipocytes or untreated differentiating adipocytes (ERK5 protein): 2-2.5 fold; PPP2CB protein levels (PPP2CB protein): higher
